Test results as given in patent US20170066801A1, “ALPHA3BETA HYDROGEN BOND SURROGATE MACROCYCLES AS MODULATORS OF RAS” (NEW YORK UNIVERSITY, priority 2014, published 2017).
Non-standard residues stand in square brackets, D forms with d. Residues, ends and D or L forms follow the SMILES beside them. β3hI = CC[C@H](C)[C@H](N)CC(=O)O; β3hE = N[C@@H](CCC(=O)O)CC(=O)O; β3hA = C[C@H](N)CC(=O)O

B1: α3β-HBSSOS-Flu (peptide)
peptide: FEGIYRLELLKAEEANK
modifications: not fully specified; printed as ZFEG*iYRLeLLKaEEANK(Flu)-NH2: Z = N-terminal 5-hexenoic acid residue; G* (position 3) = bridged allylglycine residue (hydrogen bond surrogate macrocycle between Z and G3); lowercase i (position 4), e (position 8), a (position 12) = β3-residues; K17 carries fluorescein (Flu); C-terminal amide

Key:
[1] = target: T1, HRas^(1-166) (Homo sapiens, UniProt P01112); experiment: In vitro pulldown binding assay with 6×His-tagged HRas 1-166 and fluorescein-tagged SOS peptides
T1 construct: 6×His-tagged HRas WT 1-166; made in house
Protocol: Recombinantly purified 6×His-tagged HRas WT 1-166 was incubated with Ni-NTA sepharose beads, generating recombinant Ras on solid support. FITC labeled HBS peptides were incubated in the presence of recombinant HRas-6×His/Ni-NTA Sepharose complex at 4° C. for 1 hour. Beads complexes were pelleted and washed 5× with protein buffer (20 mM Tris-HCl pH 7.6, 50 mM NaCl, 4 mM EDTA, 10 mM MgCl2), resuspended in reducing buffer (126 mM Tris-HCL pH 6.8, 20% glycerol, 4% SDS, 0.02% bromophenol blue, 2.5% β-mercaptoethanol), boiled for 10 minutes at 95° C., and subjected to SDS-PAGE with an acrylamide percentage of 20% to allow for sufficient resolution of the HBS helices. SDS-PAGE gels were imaged using an ImageQuant™ LAS 4000 biomolecular imager (GE Healthcare, Piscataway, N.J., USA). Quantification of fluorescence by FITC-HBS helices in gel was determined by manufacturer provided ImageQuant™ TL software. Raw values were normalized to total input and plotted on a semilog graph with GraphPad Prism version 6.00 for OSX (GraphPad Software, La Jolla Calif. USA, www.graphpad.com).
The binding affinity of the designed compounds for Ras was determined using in vitro pulldown assays with recombinantly purified 6×His-tagged HRas^(1-166) and fluorescein-tagged SOS peptides (FIGS. 8 and 9, and Table 2). […] Although, the exact binding mode of the peptides and the conformational state of Ras is not known, the enhanced affinity of the α3β-HBSSOS compound likely reflects a combination of both the higher conformational stability of the HBS α3β construct and the exact Ras conformation it can access. […] Because, the SOS analogs can bind nucleotide-free and bound Ras, we hypothesize that the compounds are accessing an intermediate switch conformation.

[2] = target: T2, wild type HRas (Homo sapiens, UniProt P01112); experiment: RBD-pulldown of GTP-loaded Ras in MIA PaCa-2 cells; type: cell-based; details: 48 hours
T2 construct: levels of GTP-loaded endogenous HRas, KRas, and NRas proteins; endogenous in cells; host or cells: MIA PaCa-2
Protocol: (§1) To determine the effect of α3β-HBSSOS on Sos-mediated Ras activation in cells we treated MIA PaCa-2 cells, which harbor oncogenic KRas, with α3β-HBSSOS, control peptides, or vehicle control for 48 hours. Utilizing the RBD-pulldown assay we determined the levels of GTP-loaded endogenous HRas, KRas, and NRas proteins. As expected, MIA PaCa-2 cells display GTP-loading of all isoforms at steady state when treated with the vehicle control (FIGS. 11A-B).

[3] = target: T3, wild type NRas (Homo sapiens, UniProt P01111); experiment: RBD-pulldown of GTP-loaded Ras in MIA PaCa-2 cells; type: cell-based; details: 48 hours
T3 construct: levels of GTP-loaded endogenous HRas, KRas, and NRas proteins; endogenous in cells; host or cells: MIA PaCa-2
T3 sequence (P01111 whole entry): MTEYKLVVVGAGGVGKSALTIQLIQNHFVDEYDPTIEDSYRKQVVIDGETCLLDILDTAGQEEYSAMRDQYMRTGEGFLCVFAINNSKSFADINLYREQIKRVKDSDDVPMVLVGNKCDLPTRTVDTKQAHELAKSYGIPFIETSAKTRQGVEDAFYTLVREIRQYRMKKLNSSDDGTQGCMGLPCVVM
Protocol: as §1

[4] = test system: panel of six human cancer cell lines; experiment: Growth and viability of a panel of six human cancer cell lines; type: cell-based; details: single administration of 5 μM, six days
Protocol: Various indicated cell lines were plated at low density (˜500-1000 cells per well) in a 96-well format. 12 hours post-plating, media was supplemented with either PBS vehicle, or indicated dosage, and cells were allowed to grow for ˜5.5 days. Cells were subsequently fixed for 1 hour with a 3.7% formaldehyde solution in PBS, and stained with Syto-60 nucleic acid stain (MANUFACTURER) in solution (1:2000 Syto-60, 0.5% Triton X-100, 100 ug/mL RNAse-A, in PBS). Syto-60 stained cells were subjected to quantitative imaging in 96-well plates (Odyssey® Imager, LI-COR Biosciences; excitation: 652; emission: 678) with a 3.0 mm z-axis offset to the scan-head to get the cellular nuclei in the optimal focal plane for quantification. Absolute fluorescence intensity was normalized to the vehicle control for each respective cell line at each dose. Normalized values were visualized on a semilog plot, and data was subjected to non-linear sigmoidal dose-response to determine half-maximal effective concentration (EC50) using GraphPad Prism version 6.00 for OSX, (GraphPad Software, La Jolla Calif. USA, www.graphpad.com).
To investigate the functional consequence of inhibiting Ras activation in the context of oncogenic mutations, we examined the effect of α3β-HBSSOS on the growth and viability of cancer cells of different origins. We selected a panel of six human cancer cell lines derived from the pancreas, colon, and bladder, which harbor a variety of oncogenic proteins including mutant KRas (Table 3).
α3β-HBSSOS reduces cell viability in a dose dependent manner, with the effect spanning over four orders of magnitude. We divided the cell lines into two groups with respect to EC50 values (Table 3). […] We hypothesized that differential cellular uptake may account for the different potency of the peptides between the oncogenic and wild type RTK-Ras cell lines.

[5] = target: 6×His-tagged HRas WT 1-166 (UniProt P01112); experiment: in vitro pull-down: fluorescein-tagged peptide on 6×His-HRas 1-166 / Ni-NTA beads, in-gel fluorescence

Row | Molecule | fold weaker affinity than constrained counterpart α3β-HBSSOS [1] [fold] | GTP-loading of wild type HRas [2] | GTP-loading of wild type NRas [3] | effect on cell growth relative to vehicle control [4] | fold greater affinity than α-HBSSOS [5] [fold]
1 | CC[C@H](C)[C@@H](CC(=O)N[C@@H](Cc1ccc(O)cc1)C(=O)N[C@@H](CCCNC(=N)N)C(=O)N[C@@H](CC(C)C)C(=O)N[C@@H](CCC(=O)O)CC(=O)N[C@@H](CC(C)C)C(=O)N[C@@H](CC(C)C)C(=O)N[C@@H](CCCCN)C(=O)N[C@@H](C)CC(=O)N[C@@H](CCC(=O)O)C(=O)N[C@@H](CCC(=O)O)C(=O)N[C@@H](C)C(=O)N[C@@H](CC(N)=O)C(N)=O)NC(=O)CNC(=O)[C@H](CCC(=O)O)NC(=O)[C@H](Cc1ccccc1)NC(C)=O [α3β-UNCSOS, Ac-FEGiYRLeLLKaEEAN-NH2] (Ac-FEG[β3hI]YRL[β3hE]LLK[β3hA]EEAN-NH2) | ~136 | not | not | no effect on cell growth | –
2 | CC[C@H](C)[C@H](NC(=O)CN1C/C=C\CCC(=O)N[C@@H](Cc2ccccc2)C(=O)N[C@@H](CCC(=O)O)C1=O)C(=O)N[C@@H](Cc1ccc(O)cc1)C(=O)N[C@@H](CCCNC(=N)N)C(=O)N[C@@H](CC(C)C)C(=O)N[C@@H](CCC(=O)O)C(=O)N[C@@H](CC(C)C)C(=O)N[C@@H](CC(C)C)C(=O)N[C@@H](CCCCN)C(=O)N[C@@H](C)C(=O)N[C@@H](CCC(=O)O)C(=O)N[C@@H](CCC(=O)O)C(=O)N[C@@H](C)C(=O)N[C@@H](CC(N)=O)C(N)=O [α-HBSSOS, reference compound] | – | – | – | no effect on cell growth | –
3 | B1 | – | – | – | – | 50
